Measured values as given in PubChem BioAssay AID624419 (Sanford-Burnham Center for Chemical Genomics, 2012).

Tested on: mouse plasma stability, percent remaining
Assay: second set, compound stability in murine plasma, biochemical ADME (AID 624419)
Conditions: at 1 µM

| plasma stability [%] | Structure (SMILES) |
| --- | --- |
| 100 | COc1nc(-c2ccccc2)nnc1-c1ccccc1 |
| 100 | Cc1nc(SCc2nc3ccccc3[nH]2)c2oc3ccccc3c2n1 |
| 100 | CCCOc1ccc(-c2nc(OC)c3ccccc3n2)cc1 |
| 100 | O=S1(=O)Nc2c(ccc3cccnc23)-c2ccccc21 |
| 100 | CCc1oc2ccccc2c1C(=O)c1cc(Br)c(O)c(Br)c1 |
| 80.5 | COc1ccc(CNCc2cccc3ccccc23)cc1 |
| 95.2 | CC(C)C(=O)NC(c1ccco1)c1ccc2cccnc2c1O (stereo not given) |
| 4.35 | COc1ccccc1N(/N=C1\Sc2ccccc2C1=O)C(C)=O |
| 100 | Cc1ccc(S(=O)(=O)n2c(N)nc3ccccc32)cc1 |
| 94.8 | Cc1ccc(C)c(OCCn2cc(C(=O)O)c3ccccc32)c1 |
| 73.7 | COc1ccc(S(=O)(=O)n2nc(OC(=O)c3ccccc3)cc2N)cc1 |
| 100 | Cc1ccc(C(=O)n2c3ccccc3c3ccccc32)cc1 |
| 100 | Cc1ccc(-n2c(N)c(C#N)c(-c3ccccc3)c(C#N)c2=O)cc1 |
| 100 | O=C(O)c1cccnc1SCCc1ccccc1 |
| 100 | COc1ccc(C2CC(c3ccccc3)=NN2c2ccc(S(N)(=O)=O)cc2)cc1 (stereo not given) |
| 88.8 | O=C(O)CCC(NS(=O)(=O)c1ccc(-c2ccccc2)cc1)C(=O)O (stereo not given) |
| 91.6 | COc1ccc(Sc2ccc(NC(=O)c3ccccc3Cl)cc2C#N)cc1 |
| 92.1 | CCOc1ccc(-c2nc(-c3ccncc3)no2)cc1OCC |

| plasma stability [%] | Structure (SMILES) |
| --- | --- |
| 96.4 | c1ccc2c(Nc3nnc(-c4ccncc4)s3)cccc2c1 |
| 100 | O=C(COc1ccccc1Br)NCCc1nc2ccccc2[nH]1 |
| 100 | COc1ccc(CSc2nc(C)cc(=O)[nH]2)cc1 |
| 97.6 | CCc1nnc(NC(=O)c2ccc(NS(=O)(=O)c3ccccc3)cc2)s1 |
| 97.8 | Cc1ccc(S(=O)(=O)C(c2ccccc2)c2c(C)noc2C)cc1 (stereo not given) |
| 0.14 | CCCC(=O)Nc1cccc(NC(=O)c2ccccc2Br)c1 |
| 100 | O=C(O)c1ccccc1OCc1ccccc1Br |
| 100 | CN(C)c1nc(N)nc(CSc2nnnn2-c2cccc3ccccc23)n1 |
| 73.5 | C=CCn1c(SCC(=O)c2ccc(O)c(O)c2)nnc1-c1ccccc1OC |
| 100 | COc1cccc(-c2nc(-c3ccc(NC(=O)Cc4ccccc4OC)cc3)no2)c1 |
| 0.15 | Cc1ccnc(NC(=O)CCCOc2cc(=O)n(C)c3ccccc23)c1 |
| 17 | COC(=O)c1ccccc1NC(=O)c1ccc(F)cc1 |
| 100 | COc1ccc(C2c3c(ncn(CCN4CCOCC4)c3=N)Oc3ccc4ccccc4c32)cc1OC (stereo not given) |
| 91.4 | CN(C)c1oc(-c2ccc(OCc3ccc(Cl)cc3)cc2)nc1C#N |
| 73.7 | CCOc1ccc(NC(=S)N2CCC(C(O)(c3ccccc3)c3ccccc3)CC2)cc1 |
| 100 | COc1ccc(OC)c(S(=O)(=O)Nc2cnc3ccccc3c2)c1 |
| 84.8 | CSc1nc(-c2ccc(C)cc2)nc(C(Cl)Cl)n1 |
| 15.3 | COc1ccc(N(C(=O)CCl)C(C(=O)NCCc2ccccc2)c2cccs2)cc1Cl (stereo not given) |

Continued, molecule first:

| Structure (SMILES) | plasma stability [%] |
| --- | --- |
| CN(C)C1=C(Cl)C(=O)N(c2ccc(Cl)c(Cl)c2)C1=O | 6.46 |
| CC(=O)c1ccc(N2CCN(S(=O)(=O)c3ccc4c(c3)CC(=O)N4)CC2)cc1 | 100 |
| O=C(CSc1cccc2cccnc12)N1CCCC1 | 100 |
| COc1ccc(OC)c(-c2nnc3n2N=C(c2ccc(OC)c(OC)c2)CS3)c1 | 100 |
| Cc1cc(C(=O)CN2C(=O)CCC2=O)c(C)n1Cc1ccccc1 | 98 |
| O=C1C2CC=CCC2C(=O)N1c1n[nH]c(-c2ccccc2)n1 (stereo not given) | 52.7 |
| CCCc1nc2c(=O)n(C)c(=O)nc-2n(C)n1 | 56.7 |
| O=c1[nH]c2c(s1)C(c1cccnc1)C1C3CCC(C3)C1S2 (stereo not given) | 100 |
| Cc1cc(-c2nnc3n2CCCCC3)c(C)n1-c1ccccc1 | 91.3 |
| C/C=C/Cn1c(SCCCc2ccccc2)nc2c1c(=O)[nH]c(=O)n2C | 100 |
| O=C(CCNS(=O)(=O)c1cccc2nsnc12)N1CCN(c2ccccn2)CC1 | 100 |
| CCCn1ncc(CN2CCCC(C(=O)c3cccc(OC(C)C)c3)C2)c1C (stereo not given) | 96.7 |
| O=[N+]([O-])c1ccc(CN2CCOCCOCCN(Cc3ccc([N+](=O)[O-])cc3)CCOCC2)cc1 | 100 |
| CC[C@H]1CN2CCc3cc(OC)c(OC)cc3[C@@H]2C[C@@H]1C[C@H]1NCCc2cc(OC)c(OC)cc21 | 100 |
| CCCN1CNc2c(c(=O)[nH]c(=S)n2CCc2ccc(OC)c(OC)c2)C1 | 99.5 |
| CCCN(CCC)CCNC(=O)C1CCN(Cc2nc(-c3ccc(Cl)cc3)oc2C)CC1 | 100 |
| N#C/C(=C\c1ccc([N+](=O)[O-])o1)c1nc2ccccc2[nH]1 | 9.6 |
| CCN1CCN(c2nc3ccccc3nc2C(C#N)C(=O)OC2CCCCC2)CC1 (stereo not given) | 15.5 |
| Cn1cnc([N+](=O)[O-])c1Sc1ncnc2nc[nH]c12 | 84.1 |
| COc1cc(NC(=O)c2cc(C3CC3)on2)c(OC)cc1Cl | 42.4 |
| O=C(COC(=O)C12CC3CC(CC(C3)C1)C2)NCc1ccco1 | 2.35 |
| c1ccc(CC2CCN(c3ncnc4sccc34)CC2)cc1 | 100 |
| COc1ccc(S(=O)(=O)N2CCN(S(=O)(=O)c3ccc4c(c3)OCCO4)CC2)cc1 | 100 |
| Cc1ccc(C)c(NS(=O)(=O)c2cc(C(=O)Nc3ccccc3-c3ccccc3)ccc2Cl)c1 | 83.4 |
| Cc1ccccc1N1CCN(c2ncnc3c2cnn3Cc2ccc(Cl)cc2)CC1 | 100 |

| Structure (SMILES) | plasma stability [%] |
| --- | --- |
| CS(=O)(=O)c1ccc(C(=O)OCC(=O)NC23CC4CC(CC(C4)C2)C3)cc1[N+](=O)[O-] | 91.4 |
| NC(=O)C1CCN(c2nc(-c3ccc(Br)cc3)cs2)CC1 | 82.8 |
| O=C1CCCC2=C1C1(CCCC1)N=C(Nc1nc3ccccc3o1)N2 | 100 |
| Cc1ccc(NC(=O)CCC(=O)N/N=C/c2ccc([N+](=O)[O-])o2)cc1C | 73.3 |
| Cc1cc(C)n(-c2nc(NCCCO)c3c4c(sc3n2)CCCC4)n1 | 100 |
| Cc1cccc(-n2cnc3cc(C(=O)N4CCCCC4)ccc32)c1 | 87.1 |
| CCOC(=O)C(C)Oc1cccc2c(=O)n(CC(=O)Nc3ccc4c(c3)OCCO4)ccc12 (stereo not given) | 0.19 |
| O=S(=O)(NC1CCCCC1N1CCOCC1)c1ccc(Cl)cc1 (stereo not given) | 100 |
| O=C(c1ccccn1)N(Cc1cccs1)C1(C(=O)NC2CCCCC2)CCCCC1 | 100 |
| CCCc1cc(C(=O)N(C2CCCCC2)C2CCCCC2)no1 | 84 |
| Brc1ccc2c(c1)CN1CCCC1=N2 | 100 |
| Cc1ccc(S(=O)(=O)NCc2ccc(C(=O)NCCN(Cc3ccccc3)C(C)C)cc2)cc1 | 100 |
| Cc1ccc(N2CCN(S(=O)(=O)N3CCCCC3)CC2)c(C)c1 | 100 |
| O=c1[nH]c(SCc2ccc(Cl)cc2)nc2c1CCC2 | 100 |
| c1ccc(-c2nnc(N3CCOCC3)nc2-c2ccccc2)cc1 | 100 |
| CC1CCCN(C(C(=O)Nc2ccc3c(c2)OCCO3)c2ccccc2)C1 (stereo not given) | 100 |
| O=C1NCCCc2c1oc1ccc(O)cc21 | 97.2 |
| N#Cc1ccccc1CSc1nc2ncc(Br)cc2[nH]1 | 100 |
| Cn1nnnc1Sc1ncnc2scc(-c3ccccc3)c12 | 81.9 |
| Brc1cc2c(cc1C1Nc3ccccc3C3C=CCC31)OCO2 (stereo not given) | 100 |
| Cc1cc2c(s1)c1cnn(Cc3ccccc3F)c(=O)c1n2C | 89.8 |
| Cc1ccc(NS(=O)(=O)c2ccc3c(c2)CCC(=O)N3)cc1C | 100 |
| Cc1cc(C)nc(-n2nc(C)c(Sc3ccc(F)cc3)c2N)n1 | 93.6 |
| O=C(O)c1ccc(N2C(=O)/C(=C/c3ccc(-c4ccc([N+](=O)[O-])cc4)o3)C=C2c2ccccc2)cc1 | 99.7 |
